Laboratory results: US7314864B1, “Humanin, a polypeptide suppressing neuronal death” (Keio University, priority 1999, dated 2008)
No end group written: not given here.

Columns and labels:
[1] = test system: F11 cells transfected with V642I APP cDNA; experiment: V642I APP-induced F11 cell death, trypan blue exclusion assay; assay type: cell-based; details: for suppression of V642I APP-induced cell death: 10 nM polypeptide
Description: (§1) F11 cells (Platika, D. et al. (1985) Proc. Natl. Acad. Sci. U.S.A. 82, 3499-3503; Yamatsuji, T. et al. (1996) Science 272, 1349-1352) were cultured in HamF-12 media containing 18% fetal bovine serum (FBS) and antibiotics. 7×10^4/well of F11 cells were seeded into a 6-well plate; cultured in HamF-12 containing 18% FBS for 12 to 16 hours; transfected 3 hours with plasmids encoding FAD genes and plasmids encoding HN (pHN, and such) by lipofection in the absence of serum (1 μg of FAD cDNA expression plasmid, 1 μg of HN cDNA expression plasmid, 4 μl of LipofectAMINE, 8 μl of Plus reagent); and then, were cultured for 2 hours in HamF-12 media containing 18% FBS. Then, culture media were exchanged with HamF-12 media containing 10% FBS; and the cells were cultured for additional 67 hours. 72 hours after transfection, cell death was measured by trypan blue exclusion assay. Experiments using synthetic HN polypeptides were conducted as follows: F11 cells (at 7×10^4/well in a 6-well plate) were transfected 3 hours with FAD genes in the absence of serum, as mentioned above; after cultivation for 2 hours in HamF-12 media containing 18% FBS, the cells were cultured for 67 hours in HamF-12 media containing 10% FBS with various concentrations of HN polypeptides; and cell death was measured by trypan blue exclusion assay. ALS-associated mutant cDNAs of SOD1 were also similarly transfected, and examined for their neurotoxicity.
(§2) Trypan blue exclusion assay was performed as follows. Without prewashing, the cells were suspended with gentle pipetting into a serum-free media. 50 μl of 0.4% trypan blue solution (Sigma, Cat. #T-8154) were added (final concentration of 0.08%) to 200 μl cell suspension, and the suspension was mixed at room temperature. Within 3 minutes of the trypan blue solution addition, stained cells were counted. Cell mortality was determined [100-cell survival rate (%)] based on the stained cell count. LDH assay was performed using a kit (LDH-Cytotoxic Test; Wako Pure Chemical Industries, Cat. #299-50601) by sampling 6 μl of media in which neurons were cultured. Calcein staining was performed as described in literature (Bozyczko-Coyne, D. et al. (1993) Journal of Neuroscience Methods 50, 205-216). Specifically, 6 μM Calcein-AM (3′, 6′-Di-(O-acetyl)-2′-7′-bis[N,N-bis(carboxymethyl)aminomethyl]fluorescein, tetraacetoxymethyl ester; Dojindo, Cat. #349-07201) was added to the neurons; and 30 minutes or longer after Calcein-AM treatment, fluorescence (ex=490 nm, em=515 nm) was observed by fluorescence microscopy, and measured by a spectrometer. Specific fluorescence was calculated by subtracting basal fluorescence from total fluorescence. Basal fluorescence was assigned to be the value calculated from linear trypan blue positivity-fluorescence intensity relationship, corresponding to 100% trypan blue positivity.

[2] = test system: F11 cells transfected with FAD genes (V642I APP, NL-APP, M146L PS-1, N141I PS-2); experiment: FAD gene-induced F11 cell death, trypan blue exclusion assay; assay type: cell-based, rat/mouse hybrid; details: for suppression of FAD gene-induced cell death: 10 nM polypeptide; for neuroprotective activity relative to HNG: all types of cell death (FAD genes, Aβ)
Description: as §1, §2

[3] = test system: primary cultured cortical neurons treated with Aβ1-43; experiment: Aβ1-43-induced cell death of primary cultured cortical neurons, trypan blue exclusion assay; assay type: cell-based; details: 10 nM polypeptide; for effect on Aβ1-43-induced cell death: 25 μM Aβ1-43, confirmed by LDH release and Calcein staining
Description: Primary culture of mouse cortical neurons was performed in poly-D-lysine-coated 24-well plates (Sumitomo Bakelite) in the absence of serum and in the presence of N2 supplement, as described in literature (Ecksioglu, Y. Z. et al. (1994) Brain Res. 644, 282-90). The purity of neurons prepared according to the method was >98%. The prepared neurons (1.25×10^5/well, 250 μl media/well) were preincubated in the absence or presence of 10 nM or 10 μM sHN polypeptides for 16 hours; and were treated with 25 μM Aβ1-43 in the absence or presence of sHN polypeptides at the same concentrations for 24 to 72 hours. Since primary cultured neurons are damaged even by temporary dryness during medium exchange, treatment of the cells by Aβ1-43 was performed as follows. First, half of the volume of the old medium (125 μl) was discarded. Then, 125 μl of pre-warmed fresh medium containing 50 μM Aβ1-43 and sHN with a concentration indicated above were added to the culture.
as §2

[4] = test system: F11/EcR cells transfected with ecdysone-inducible Q79 plasmid; experiment: Polyglutamine Q79-induced F11/EcR cell death (ecdysone-inducible), trypan blue exclusion assay; assay type: cell-based; details: 1 μM polypeptide, 72 hours
Description: F11/EcR cell experiment using ecdysone was conducted as follows: F11/EcR cells were seeded at 7×10^4/well into a 6-well plate; cultured for 12 to 16 hours in HamF-12 media containing 18% FBS; and were similarly transfected in the absence of serum for 3 hours with 1 μg of ecdysone-inducible plasmid alone, or with 1 μg of HN-encoding plasmid, as mentioned above. After culturing for 12 to 16 hours in HamF-12 media containing 18% FBS, the cells were cultured for 2 hours in HamF-12 media containing 10% FBS, then ecdysone (Ponasterone) was added to the media (final concentration of 40 μM). Cell death was measured 72 hours after ecdysone treatment. Experiments using synthetic HN polypeptides were conducted as follows: cells were similarly transfected for 3 hours with FAD genes in the absence of serum; cultured for 12 to 16 hours in HamF-12 media containing 18% FBS; cultured for 2 hours in HamF-12 media containing 10% FBS and various concentrations of HN polypeptide; and then, 40 μM Ponasterone was added to the media. Cell death was measured by trypan blue exclusion assay after 72 hours from the ecdysone treatment. HD/SCA-associated Q79 cDNAs were also similarly transfected, and the neurotoxicity was tested.
(§3) Trypan blue exclusion assay was performed as follows. […] Within 3 minutes of the trypan blue solution addition, stained cells were counted. Cell mortality was determined [100-cell survival rate (%)] based on the stained cell count. […] Specifically, 6 μM Calcein-AM (3′, 6′-Di-(O-acetyl)-2′-7′-bis[N,N-bis(carboxymethyl)aminomethyl]fluorescein, tetraacetoxymethyl ester; Dojindo, Cat. #349-07201) was added to the neurons; and 30 minutes or longer after Calcein-AM treatment, fluorescence (ex=490 nm, em=515 nm) was observed by fluorescence microscopy, and measured by a spectrometer. Specific fluorescence was calculated by subtracting basal fluorescence from total fluorescence. Basal fluorescence was assigned to be the value calculated from linear trypan blue positivity-fluorescence intensity relationship, corresponding to 100% trypan blue positivity.

[5] = test system: F11 cells transfected with SOD1 mutants (A4T, G85R, G93A); experiment: ALS-associated SOD1 mutant-induced F11 cell death, trypan blue exclusion assay; assay type: cell-based, rat/mouse hybrid; details: 100 μM polypeptide
Description: as §1
as §3, with “Basal fluorescence was assigned to be the value calculated from linear trypan blue positivity-fluorescence intensity relationship, corresponding to 100% trypan blue positivity.” left out

## MAPRGFSCLLLLTGEIDLPVKRRA [sHNG]
[1]; 72 h
  IC50: ~0.1 nM
[1]; synthetic polypeptide, 72 hours
  concentration giving complete antagonizing effect on V642I APP-induced cell death: ≤ 10 nM
[2]
  concentration showing significant or sufficient neuroprotective action: about 1 nM
[2]; NL-APP, M146L PS-1, N141I PS-2
  concentration giving complete suppression of cell death: ≤ 10 nM
[2]; all four types of FAD genes
  concentration giving complete antagonism/rescue of neuronal death: ≤ 10 nM
[3]
  effect on Aβ1-43-induced cell death: completely protected
[4]
  effect on Q79-induced cell death, synthetic polypeptide: Extensive cell death
[5]
  effect on SOD1 mutant-induced cell death, synthetic polypeptide: couldn't be suppressed

## MAPRGFSCRLLLTSEIDLPVKRRA [sHNR]
[1]; V642I APP cDNA, treated with 10 μM sHN polypeptides, 72 hours, mean ±S.D.
  cell mortality (%): 17.7 ± 2.2 %

## PRGFSCLLLLTGEIDLP [HNG-17]
[2]
  suppression of FAD gene-induced cell death: completely antagonize
[3]; 25 μM Aβ1-43, 72 hours, mean ±S.D.
  cell mortality: 28.8±2.3%
[3]
  effect on Aβ1-43-induced cell death: completely antagonize

## SEQ ID NO: 46: HNG with Cys at position 8 substituted with His (MAPRGFSHLLLLTGEIDLPVKRRA)
[1]
  suppression of V642I APP-induced cell death: significant suppression activity
[2]
  suppression of FAD gene-induced cell death: inhibited neuronal death
  neuroprotective activity relative to HNG: slight decrease in the cell death suppression activity
[3]
  effect on Aβ1-43-induced cell death: suppressed cell death

## SEQ ID NO: 48: HNG with Cys at position 8 substituted with Lys (MAPRGFSKLLLLTGEIDLPVKRRA)
[1]
  suppression of V642I APP-induced cell death: significant suppression activity
[2]
  suppression of FAD gene-induced cell death: inhibited neuronal death
  neuroprotective activity relative to HNG: comparable to the original HNG polypeptide
[3]
  effect on Aβ1-43-induced cell death: suppressed cell death

## SEQ ID NO: 54: HNG with Cys at position 8 substituted with Arg (MAPRGFSRLLLLTGEIDLPVKRRA)
[1]
  suppression of V642I APP-induced cell death: significant suppression activity
[2]
  suppression of FAD gene-induced cell death: inhibited neuronal death
  neuroprotective activity relative to HNG: comparable to the original HNG polypeptide
[3]
  effect on Aβ1-43-induced cell death: suppressed cell death
